Patent US20160324818A1, “DIET FOOD COMPOSITION INCLUDING DHA TO REDUCE SHORT-TERM AND LONG-TERM LOW-GRADE INFLAMMATION” (PRI S.A., priority 2013, published 2016)

Legend:
Assay type in all cases: in vivo, human (obese patients, average BMI=33)
[1] = Slimming study under medical supervision: weight loss and waistline
Procedure: (§1) A study under medical supervision was conducted among obese patients (average BMI=33). The subjects were separated into two groups: • a “control” group consuming food compositions similar to those of the invention but without DHA; and • a “study” group consuming food compositions according to the invention comprising DHA.
For the first 60 days of the study, the patients in the study group each received 500 mg of DHA per day solely through the consumption of food compositions and portions according to the invention. Their calorie intake was below 800 kcals per day and was presented chiefly in the form of food compositions or portions according to the invention. To be more precise, the patients consumed five food portions according to the invention during the day, two of them during the main meals where the portions were accompanied by vegetables in order to ensure their DHA intake especially. […] The goal was to re-educate the patient in terms of food intake. Traditional foods were gradually re-introduced into the patient's daily food intake in order to avoid deficiency and fatigue as well as to re-educate him or her on the food intake level.
The progress of the waistline measurements in the two groups of patients is shown in the graph of FIG. 2. The waistline measurement makes it possible to evaluate loss of abdominal fat, a parameter associated with the metabolic syndrome. […]

[2] = tested on: ultrasensitive reactive protein C (PRCus); assay: Slimming study: blood level of ultrasensitive reactive protein C; conditions: DHA every day during slimming diet (FIG. 3); control group 12%
Procedure: as §1
At the start of the program as well as after 30 days if necessary, then 60 days and at the end of 6 months the subjects underwent a blood test in order to evaluate their levels of pro-inflammatory and anti-inflammatory markers depending on their increase or loss of weight. The markers or molecules indicating the presence of inflammation that were tested for were leucocytes, neutrophils, the reactive protein C (PRC), TNF-α, interleukin 6, leptin, resistin and adiponectin.
For the first 60 days of the study, the patients in the study group each received 500 mg of DHA per day solely through the consumption of food compositions and portions according to the invention. Their calorie intake was below 800 kcals per day and was presented chiefly in the form of food compositions or portions according to the invention. […]
It can be seen from FIGS. 3 and 4 that there was a diminishing of the pro-inflammatory markers. Two inflammation markers associated with obesity were tested for and their levels were measured: these were ultrasensitive reactive protein C (PRCus) and leptin.

PD1 = assay: Slimming study: blood level of anti-inflammatory marker PD1; conditions: day 60; control group reduced by 36%
Procedure: as §1
At the start of the program as well as after 30 days if necessary, then 60 days and at the end of 6 months the subjects underwent a blood test in order to evaluate their levels of pro-inflammatory and anti-inflammatory markers depending on their increase or loss of weight. The markers or molecules indicating the presence of inflammation that were tested for were leucocytes, neutrophils, the reactive protein C (PRC), TNF-α, interleukin 6, leptin, resistin and adiponectin. […]

CC/C=C\C/C=C\C/C=C\C/C=C\C/C=C\C/C=C\CCC(=O)O [DHA, docosahexaenoic acid]
average weight loss ([1]; 6 months (D-180) from D-0, same figure stated for both groups): about 20 kg
average loss in waistline measurement ([1]; end of 60 days, same figure stated for each group): about 15 cm
reduction of PRC rate [2]: approximately 18%
change of PD1 level as compared with day 0 (PD1): +83%
